In PMC6582358, “Reversible ADP-ribosylation of RNA” (Nucleic Acids Research, 2019):

Assays:
Format in all cases: biochemical
PARP10 cat = target: T1, PARP10 cat (Homo sapiens, UniProt Q53GL7); assay: […]-NAD+ ADP-ribosylation of RNA, urea-PAGE autoradiography; conditions: acceptor 5'-phosphorylated ssRNA; 50 uM NAD+, 5 mM MgCl2, pH 7.6, 37 °C; labelled compound
T1 construct: catalytic domain (818-1025), GST tag (pGEX-4T1), E. coli Rosetta DE3, gel filtration
T1 sequence (Q53GL7 818-1025): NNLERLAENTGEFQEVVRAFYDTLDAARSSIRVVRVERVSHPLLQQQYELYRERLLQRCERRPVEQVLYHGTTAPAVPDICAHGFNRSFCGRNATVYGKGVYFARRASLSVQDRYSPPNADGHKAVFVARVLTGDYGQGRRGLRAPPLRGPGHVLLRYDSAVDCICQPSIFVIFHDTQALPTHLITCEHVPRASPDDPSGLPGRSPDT

PARP3 FL = target: T2, PARP3 FL (Homo sapiens, UniProt Q9Y6F1); assay: […]-NAD+ ADP-ribosylation of DNA, urea-PAGE autoradiography; conditions: acceptor DNA ends; pH 7.6, 37 °C; labelled compound
T2 construct: full length, His tag (pDEST17)
T2 sequence (Q9Y6F1 1-533): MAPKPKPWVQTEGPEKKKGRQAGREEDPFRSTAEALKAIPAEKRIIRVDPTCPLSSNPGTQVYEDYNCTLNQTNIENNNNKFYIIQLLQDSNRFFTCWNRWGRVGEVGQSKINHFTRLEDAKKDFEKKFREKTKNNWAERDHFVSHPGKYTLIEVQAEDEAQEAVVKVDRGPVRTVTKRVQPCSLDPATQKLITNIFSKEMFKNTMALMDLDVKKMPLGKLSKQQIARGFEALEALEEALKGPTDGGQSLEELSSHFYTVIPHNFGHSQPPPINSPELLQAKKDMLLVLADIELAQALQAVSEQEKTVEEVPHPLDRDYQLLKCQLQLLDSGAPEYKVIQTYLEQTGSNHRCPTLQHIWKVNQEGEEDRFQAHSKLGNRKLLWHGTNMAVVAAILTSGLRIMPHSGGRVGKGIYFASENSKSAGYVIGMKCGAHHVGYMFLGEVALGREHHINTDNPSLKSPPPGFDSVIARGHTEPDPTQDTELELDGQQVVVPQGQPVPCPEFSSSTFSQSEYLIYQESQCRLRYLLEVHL

TRPT1 = target: T3, TRPT1 (Homo sapiens, UniProt Q86TN4); assay: […]-NAD+ ADP-ribosylation of RNA, urea-PAGE autoradiography; conditions: acceptor 5'-phosphorylated ssRNA; 50 uM NAD+, 5 mM MgCl2, pH 7.6, 37 °C; labelled compound
T3 construct: codon-optimised synthetic gene, His tag, pET28a, E. coli Rosetta DE3, Ni and gel filtration
T3 sequence (Q86TN4 1-253): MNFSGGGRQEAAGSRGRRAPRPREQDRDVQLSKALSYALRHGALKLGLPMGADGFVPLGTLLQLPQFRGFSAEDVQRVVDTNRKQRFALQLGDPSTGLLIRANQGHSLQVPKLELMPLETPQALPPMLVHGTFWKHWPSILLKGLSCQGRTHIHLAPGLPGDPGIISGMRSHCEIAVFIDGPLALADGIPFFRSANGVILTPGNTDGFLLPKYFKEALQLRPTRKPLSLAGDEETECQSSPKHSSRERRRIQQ

PARP10 FL = target: T4, PARP10 FL (Homo sapiens, UniProt Q53GL7); assay: as above; conditions: acceptor 5'-phosphorylated ssRNA; 50 uM NAD+, 5 mM MgCl2, pH 7.6, 37 °C; labelled compound
T4 construct: full length, His6-SUMO-TEV vector, E. coli Rosetta DE3, Ni, heparin and gel filtration
T4 sequence (Q53GL7 1-1025): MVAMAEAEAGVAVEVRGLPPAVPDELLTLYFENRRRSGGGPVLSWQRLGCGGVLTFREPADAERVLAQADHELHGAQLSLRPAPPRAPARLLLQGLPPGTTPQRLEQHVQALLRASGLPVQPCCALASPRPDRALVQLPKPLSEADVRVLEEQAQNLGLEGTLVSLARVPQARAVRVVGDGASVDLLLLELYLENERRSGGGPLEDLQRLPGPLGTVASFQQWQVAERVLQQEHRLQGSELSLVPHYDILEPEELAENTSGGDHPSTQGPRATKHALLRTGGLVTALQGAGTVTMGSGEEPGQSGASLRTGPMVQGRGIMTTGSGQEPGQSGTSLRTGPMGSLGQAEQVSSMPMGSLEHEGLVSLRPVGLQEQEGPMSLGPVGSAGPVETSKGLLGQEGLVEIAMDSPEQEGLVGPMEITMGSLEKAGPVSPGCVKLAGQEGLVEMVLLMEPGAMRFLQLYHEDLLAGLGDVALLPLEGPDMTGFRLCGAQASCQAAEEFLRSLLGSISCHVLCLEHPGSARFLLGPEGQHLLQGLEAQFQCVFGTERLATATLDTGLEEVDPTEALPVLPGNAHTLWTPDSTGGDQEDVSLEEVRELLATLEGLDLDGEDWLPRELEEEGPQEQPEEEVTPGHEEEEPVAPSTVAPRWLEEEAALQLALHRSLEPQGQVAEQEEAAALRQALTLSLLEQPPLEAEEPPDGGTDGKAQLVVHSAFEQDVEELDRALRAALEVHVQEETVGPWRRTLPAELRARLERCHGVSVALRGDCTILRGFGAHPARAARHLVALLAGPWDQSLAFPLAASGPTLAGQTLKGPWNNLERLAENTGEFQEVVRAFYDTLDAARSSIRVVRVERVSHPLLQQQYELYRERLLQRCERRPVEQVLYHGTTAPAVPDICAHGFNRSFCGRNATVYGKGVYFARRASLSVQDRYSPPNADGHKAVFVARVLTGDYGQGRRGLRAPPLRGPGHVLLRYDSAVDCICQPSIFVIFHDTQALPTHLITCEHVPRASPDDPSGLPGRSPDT

NC(=O)c1ccc[n+]([C@@H]2O[C@H](COP(=O)(O)OP(=O)(O)OC[C@H]3O[C@@H](n4cnc5c(N)ncnc54)[C@H](O)[C@@H]3O)[C@@H](O)[C@H]2O)c1 [NAD+]
32P-NAD+ ADP-ribosylation of RNA, urea-PAGE autoradiography (PARP10 cat): RNA ADP-ribosylation activity of PARP10 is time and NAD^+ concentration dependent | 32P-NAD+ ADP-ribosylation of DNA, urea-PAGE autoradiography (PARP3 FL): PARP3 could only ADP-ribosylate DNA ends | 32P-NAD+ ADP-ribosylation of RNA, urea-PAGE autoradiography (TRPT1): TRPT1 based RNA modification is time and NAD^+ concentration dependent | 32P-NAD+ ADP-ribosylation of RNA, urea-PAGE autoradiography (PARP10 FL): PARP10 full length can also ADP-ribosylate phosphorylated RNA ends
